Columns and labels:
[1] = format: physicochemical; set-up: key to Fibril / Fibril Formation / TEM 2cat / Fibril: 1 = fibrils present; 0 non-fibrillar structures; details: TEM, 1 mg/mL, uranyl acetate stain, qualitative
[2] = Zeta-potential measurement; format: physicochemical; details: for Zeta pot. / mV: 1 mg/mL in PBS pH 7.4 from 10 mg/mL DMSO stock, 1 d RT, 60 µL diluted in 600 µL 1 mM KCl, Zetasizer Nano ZS, Smoluchowski, mean of triplicate; for Zeta-Potential / mV: mean
Summary of the method: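 Readout: zeta potential (mV) derived by Smoluchowski from measured electrophoretic mobility. Preformed aggregates (1 mg/mL peptide, PBS pH 7.4, RT for 1 d) were diluted into dilute KCl electrolyte (1 mM) shortly before analysis.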

[3] = system: HIV-1 infection of TZM-bl cells; experiment: HIV-1 infectivity enhancement assay, β-galactosidase luminescence; format: cell-based; details: for Log10 Infection Rel EF-C: log10 of infection relative to EF-C
[4] = Turbidity, derived count rate of scattered light; format: physicochemical; details: for Count Rate / kcps: derived count rate of scattered light at 633 nm, 173°, from zeta-potential measurement, 0.1 mg/mL in 1 mM KCl after 1 d at 1 mg/mL in PBS, turbidity / microscopic aggregation, mean of triplicate
Summary of the method: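 Samples: 1 mg/mL in PBS pH 7.4 (from DMSO), 1 d at RT, then diluted in 1 mM KCl immediately before measurement. Triplicates, two independent runs averaged.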

[5] = n-fold infection vs virus only, relative to that of EF-C, 1.3 µM peptide

Substance | Fibril / Fibril Formation [1] | Zeta pot. / mV [2] | Zeta-Potential / mV ([2]; Figure 6C) | Inf. rel. EF-C ([3]; HIV-1 infection relative to EF-C, Fig 23 plot, panels A and B, mean of 3 values) | Inf. rel. EF-C ([3]; HIV-1 infection relative to EF-C, Fig 23 plot, single data point, replicate 1) | Inf. rel. EF-C ([3]; HIV-1 infection relative to EF-C, Fig 23 plot, single data point, replicate 2) | Inf. rel. EF-C ([3]; HIV-1 infection relative to EF-C, Fig 23 plot, single data point, replicate 3) | Log10 Infection Rel EF-C ([3]; Figure 6C) | Inf. rel. EF-C [3, 5] | Count Rate / kcps [4] | Log10 Count Rate ([4]; log10 of derived count rate of scattered light, Figure 6C) | Log10 Count Rate ([4]; logarithm of count rate in kcps) | Zeta-Potential / mV ([2]; Figure 7B) | infectivity enhancement, in words ([3]; fibril-forming peptides with positive zeta-potential, low count rate) | Log10 Infection Rel EF-C ([3]; Figure 7B)
KAQCTLP | 0 | -8.503 mV | -8.503 mV | 0.07031 | 0.07607 | 0.09243 | 0.04244 | -1.153 | 0.07 | 97.27 kcps | 1.988 | 1.988 | – | – | –
RQGNINIVA [reference compound] | 1 | 10.2 mV | – | – | – | – | – | – | 0.12 | 36 kcps | – | – | 10.17 mV | do not enhance infectivity | -0.93
LASLIYR [reference compound] | 0 | -5.0 mV | – | – | – | – | – | – | 0.06 | 105 kcps | – | – | -5.01 mV | – | -1.2
